The values below come from a melting point compilation (Tetko et al.; mined from patent text by program, amines drawn as free bases though some values may be those of a salt).

Consider `CCCCCCCNC(=O)Nc1ccc(-n2cccn2)cc1C(=O)NCC1CCN(C(c2ccccc2)c2ccccc2)CC1`, for which the melting point (in general, the temperature of the solid-liquid transition) fell in the range of 176 to 178 °C. The same measure for `CC(C)(C)OC(=O)[C@H]1CC[C@@H](c2ccccc2)N1C(=O)CNC(=O)Nc1cccc(OCC(=O)O)c1` (racemic): 192 °C; for `COC(=O)c1c(O)c(-c2cccc(C(F)(F)F)c2)nn1C`: 101 to 103 °C.

As for `CCOC(=O)C1=C(N)NC(N)=C(C(=O)OCC)C1c1ccccc1`, the melting point was determined as 139 °C.

Consider `O=C1Nc2ccc(F)cc2C(C#CC2CC2)(C(F)(F)F)N1` (racemic), for which the melting point came out at 155 °C. Compound `O=C(O)c1cc(=O)cc(-c2ccccc2O)o1` displayed a melting point of 213 to 215 °C. Then `CCOC(=O)c1[nH]c(=O)c(CC(C)C)[n+]([O-])c1OC`, with 153 to 155 °C; and `CCOC(=O)c1cccc(-c2ccc(Cl)c3cc(CO)sc23)c1`, with 119 to 120 °C; and `O=C1Cn2nc(-c3ccc(F)cc3)c(-c3ccncc3)c2N1`, with over 250 °C.

Compound `COC(=O)c1ccc(OCCNC(=O)C2Cc3ccccc3N2S(=O)(=O)c2ccc(-c3cccc(C(F)(F)F)c3)cc2)cc1Cl` (centres undefined) gave a melting point of 63 to 67 °C. Then `O=[N+]([O-])c1cc2c(Nc3ccc(F)c(Cl)c3)ncnc2cc1OC1CCCC1`, with 230 °C; and `O=C1CCN(C(=O)c2ccc3nonc3c2)CC1`, with 136 to 139 °C; and `CN(C(=O)CCCOc1ccc2nc3n(c(=O)c2c1)CC(=O)N3)C1CCCCC1`, with 200 to 202 °C. The same measure for `Cc1cc2c(cc1C)[C@@H](O)[C@H](CN1CCC3(CC1)C(=O)NCN3c1ccccc1)CC2` (relative stereo): 232 to 233 °C.

`CCc1c(Cc2cc(C)cc(C)c2)n(COCCCCO)c(=O)[nH]c1=O` displayed a melting point of 101 to 103 °C. Take `CCC(Oc1ccc(-n2c(C)nc3cc(C(F)(F)F)ccc32)cc1)C(=O)O` (centres undefined): the melting point was found to be 98 °C.

For `NS(=O)(=O)c1cc2c(s1)CCCC2O` (centres undefined), the melting point was 102 to 103 °C. Then `OCCNC(=S)NC(=Nc1cccc2ccccc12)c1ccccc1`, with 131 to 132 °C; and `CN1CCN(C(=O)c2cc(N)cc(C(F)(F)F)c2)CC1`, with 114 to 115 °C; and `CCOC(=O)C1=C(C)NC(N)=C(C(=O)OCC)C1c1ccco1` (centres undefined), with 183 °C. The same measure for `COc1cc(C(F)(F)F)cc(Cl)c1-n1nc(C#N)c(S(=O)C(F)(F)F)c1N` (centres undefined): 195 °C; for `O=P(CCc1ccccc1)(OCc1ccccc1)OCc1ccccc1`: 48 to 49 °C. As to `O=C(NCCN1CCC(Oc2ccc(F)cc2Cl)CC1)c1ccc(-n2cccn2)nc1`, the melting point lay in the range of 109 to 110 °C. The same measure for `CCCCCC(=O)C=Cc1cc(O)c2c(c1)OC(C)(C)C1CC=C(C)CC21` (centres undefined): 119 °C; for `N#Cc1ccc(-c2ccc(OCC(CN3C(=O)c4ccccc4C3=O)N(O)C=O)cc2)cc1` (centres undefined): 199 to 202 °C; for `CCC1CCC(=O)C=C1c1ccc(OCC(=O)O)cc1Cl` (centres undefined): 138 to 140 °C. The compound `CC1(CBr)OC(C(Br)(Br)Br)OC1=O` (centres undefined) came in with a melting point of 110 to 113 °C. The same measure for `Cc1cccc(NC(=O)NC2N=C(c3ccccc3F)c3ccccc3N(Cc3csc4ccccc34)C2=O)c1` (racemic): 214 to 216 °C; for `CC(C)(C)c1ccc(COc2cc3c(cc2C(=O)c2ccc(C(=O)O)cc2)C(C)(C)CCC3(C)C)cc1`: 218 to 219 °C; for `CN(C)c1ccc(NC(=O)N(Cc2ccco2)C[C@H]2CCCC[C@H]2CN(Cc2ccco2)C(=O)Nc2ccc(N(C)C)cc2)cc1`: 106 to 110 °C. As for `O=C(O)CCC(O)c1ccc(-c2ccc(Br)cc2)cc1` (centres undefined), the melting point was found to be 127 °C. Then `CC(=O)N1CCN(Cc2cc(C)c(O)c(C)c2)CC1`, with 150 to 151 °C; and `CN1C(=O)CCC2(C)c3ccc(C(=O)c4ccccc4Cl)cc3CCC12` (centres undefined), with 105 to 115 °C; and `Cc1cc(F)ccc1-c1nc(NC(C)(C)CO)nc2c1ccc(=O)n2-c1c(F)cccc1F`, with 99 to 105 °C.

`COC(C(=O)O)C(=O)Nc1cc(Cl)cc(Cl)c1` (centres undefined) gave a melting point of 142 to 145 °C. The same measure for `CCCCCCCCCCCCOc1cccc2c(OCC(O)CO)cccc12` (centres undefined): 143 to 144 °C; for `O=C1CCC2(CC2)C(=O)C1`: 116 to 118 °C. Turning to `COc1oc2cccc(-c3ccc(O)cc3)c2c1C(C)=O`, the melting point was 222 °C. Then `O=C(Nc1ccc(-n2nc(C(F)(F)F)cc2C(F)(F)F)cc1)c1ccc(Cl)nc1Cl`, with 115 to 117 °C; and `CCCc1nn(-c2ccc(C(F)(F)F)cn2)cc1COc1cccc(CC(=O)O)c1`, with 77 to 78 °C. Then `O=Cc1ccc(=O)[nH]c1`, with 222 to 224 °C; and `Cc1oc(-c2ccncc2)nc1COc1ccc(Cn2cc(CCC(=O)O)c(-c3ccccc3)n2)cc1`, with 154 to 155 °C.

Compound `OC1(c2cn(-c3ccc(Br)cc3)nn2)CN2CCC1CC2` (centres undefined) gave a melting point of 214 °C. Then `N#Cc1ccc(/C=C/S(=O)(=O)CS(=O)(=O)/C=C/c2ccc(C#N)cc2F)c(F)c1`, with 268 to 270 °C.

In the case of `C=C(CC(=O)O)c1ccc(-c2ccc(F)cc2F)cc1`, the melting point lay within 109 to 110 °C. Then `Cc1cc(Br)cnc1CCCCNC1=NS(=O)N=C1N` (centres undefined), with 188 to 190 °C; and `CC(=O)OC1CCC2(C)C3=C(CCC2C1)C1CCC(C(C)=O)C1(C)CC3=O` (centres undefined), with 169 to 172 °C. Turning to `O=C(NCc1cc[nH]n1)c1ccnc(N2CCN(Cc3ccc(F)cc3)C2=O)c1`, the melting point lay in the range of 178 to 180 °C.

With `COC(=O)C1=C(C)NC(C)=C(C(=O)OC(C)C)C1c1ccccc1[N+](=O)[O-]` (centres undefined), the melting point worked out at 174 °C. The same measure for `O=C(O)C1C=C(c2ccccc2)CC1` (centres undefined): 122 to 124 °C; for `c1ccc2c(c1)OP(N(C1CCCCC1)C1CCCCC1)c1ccccc1-2` (centres undefined): 162 °C.

As to `CC(C)(C)OC(=O)N[C@@H](Cc1ccc(-c2ccc(F)cc2)cc1)C(=O)OCc1ccccc1`, the melting point was in the range of 103 to 104 °C. The same measure for `CSc1nncc(-c2cccc(Cl)c2)n1`: 79 to 81 °C; for `CCCc1[nH]c2cc(C(=O)OC)ccc2c1C(=O)C1CCC1`: 159 to 160 °C; for `CNC(=O)C(Cc1ccc2ccccc2c1)NC(=O)OC(C)(C)C` (centres undefined): 177 to 179 °C. In turn, `O=c1ccc2c3ccccc3[nH]c2n1-c1ccccc1` registered a melting point of 308 to 309 °C. The same measure for `COC(=O)c1c(-c2ccncc2)[nH]c(-c2ccncc2)c1C`: 245 to 247 °C. `CC(C)c1cnn2c(O)cc(O)nc12` came in with a melting point of 242 to 243 °C. Compound `CC1CC(=O)NN=C1c1ccc(NC(=O)C2CC2(Cl)Cl)cc1` (centres undefined) yielded a melting point of 252 to 253 °C. The same measure for `CC(c1cc(Cl)cc([N+](=O)[O-])c1O)c1cc(Br)cc([N+](=O)[O-])c1O` (centres undefined): 161 °C.

As to `COc1cc2c(cc1OCc1ccccc1)C(O)CN(Cc1cc(OC)c(OC)c(OC)c1)C2` (centres undefined), the melting point fell in the range of 126 to 127 °C.

In the case of `CCCc1c(O)ccc2c(OCc3ccccc3)cc(=O)oc12`, the melting point was 213 to 214 °C. The same measure for `CCOC(=O)C(C#N)=CNc1ccc(CC)cn1`: 155 to 156 °C; for `C(=Cc1ccc(-c2noc3ccccc23)cc1)c1ccc(-c2nc(-c3ccccc3)no2)cc1`: 216 to 217 °C; for `N#Cc1cc(-c2ccccc2)c(C(=O)O)cn1`: 270 to 272 °C. The same measure for `NC(=O)NN=Cc1ccc(OC2CCOCC2)cc1`: 208 to 209 °C; for `C=CCOC(=O)CCCOc1cc([N+](=O)[O-])c(CO)cc1OC`: 73 to 75 °C. The same measure for `O=C(NC(CCCl)c1ccccc1Br)c1c(F)cccc1F` (centres undefined): 183 to 185 °C. Regarding `OCCc1ccc(OCc2ccc(Cl)cc2Cl)cc1`, the melting point amounted to 55 °C. Then `O=C(O)C1CC2CCCCC2CN1C(S)c1nn[nH]n1` (centres undefined), with 165 to 172 °C; and `CS(=O)c1ccc(S(=O)(=O)N2CCCC2=O)cc1` (centres undefined), with 127 to 129 °C. The same measure for `COc1cc2c(cc1OCCN(C)C)N(C(=O)c1ccc(-c3ccc(C#N)cc3C)cc1)CC2`: 167 to 171 °C; for `COC(=O)c1c(C)[nH]c(-c2ncccn2)c1C(=O)OC`: 140 to 146 °C. In turn, `CC(C)(C)OC(=O)N1CCC(CO)(c2ccccc2)CC1` had a melting point of 64 °C.

In the case of `Brc1ccc(-c2cc(-c3ccc(Br)cc3)on2)cc1`, the melting point fell in the range of 218 to 220 °C. Regarding `CCOC(=O)C(Cc1ccccc1)=NO`, the melting point lay in the range of 54 to 55 °C. The compound `O=C(Nc1nnn[nH]1)c1ccccc1O` registered a melting point of 264 to 266 °C. Then `C=CC[C@@H]1CCC(=O)C[C@H]1c1ccc(OCc2ccccc2)cc1OCc1ccccc1` (relative stereo), with 104 to 106 °C; and `CP1(=O)c2ccccc2CN1c1ccc(Oc2ccccc2)cc1` (centres undefined), with 176 to 177 °C; and `CNC(=O)c1ccc(C(=O)Nc2cccc(C3=NC(C)(C)Cc4cc(OC)c5c(c43)CC(C)(C)O5)c2)cc1`, with 310 to 312 °C. The same measure for `CN(c1cc(F)cc2cc(C3=NCCS3)[nH]c12)S(=O)(=O)c1cccs1`: 188 to 189 °C. The same measure for `CC(C)(C)OC(=O)N1CC2CC1C(=O)S2` (centres undefined): 91 °C; for `O=C1CC(O)CC(/C=C/c2c(Cl)cc(Cl)cc2OCc2ccccc2)O1` (centres undefined): 109 to 112 °C. Consider `CCCCCCCCCCCCCCCCNc1c(Cl)cc(C(=O)O)cc1Cl`, for which the melting point fell in the range of 92 to 94 °C. As to `c1ccc2c(C3CN4CCC3CC4)c[nH]c2c1` (centres undefined), the melting point lay within 214 to 216 °C. Then `NNC(=O)c1cc2c(s1)-c1ccccc1OC2c1ccccc1` (centres undefined), with 238 to 239 °C; and `Cn1nc(N)nc1NCCCOc1cccc(CN2CCCCC2)c1`, with 94 to 95 °C; and `Cc1nc2c(C(F)(F)F)cccc2c(O)c1C(=O)O`, with 260 °C.

Compound `O=C(O)c1cc(OCCCOc2ccc(-c3ccccc3)cc2)cc(OCCCOc2ccc(-c3ccccc3)cc2)c1` returned a melting point of 186 to 187 °C.
